Measured values taken from the supplement of paper PMC10307832.

Columns and labels:
Assay in all cases: relative viability (nuclei count vs DMSO), 5 days (fraction); higher = more cells survive
[1] = compound: CN(C)CC1=CC(=CC=C1)N=C(C2=CC=CC=C2)C3=C(NC4=C3C=CC(=C4)C(=O)N(C)C)O + CC(=O)Nc1cccc(-n2c(=O)n(C3CC3)c(=O)c3c(Nc4ccc(I)cc4F)n(C)c(=O)c(C)c32)c1 [Trametinib] (partner 0.02 µM)
Procedure, shortened: (§1)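 Lung cancer cell lines in 1536-well plates got either a single drug or a fixed anchor-drug dose together with five library-drug doses (not always all listed) in √10 steps, by pin tool, on the day after seeding. Nuclei were counted after 5 days, and relative viability is the treated-to-vehicle ratio of nuclei counts. Values are medians of duplicate plates.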

[2] = compound: CN(C)CC1=CC(=CC=C1)N=C(C2=CC=CC=C2)C3=C(NC4=C3C=CC(=C4)C(=O)N(C)C)O + N=C(N)NC(=N)NCCc1ccccc1 [Phenformin] (partner 250 µM)
Procedure, shortened: as §1

[3] = compound: CN(C)CC1=CC(=CC=C1)N=C(C2=CC=CC=C2)C3=C(NC4=C3C=CC(=C4)C(=O)N(C)C)O + Nc1nc2[nH]cc(CCc3ccc(C(=O)N[C@@H](CCC(=O)O)C(=O)O)cc3)c2c(=O)[nH]1 [Pemetrexed] (partner 0.2 µM)
Procedure, shortened: as §1

[4] = compound: CN(C)CC1=CC(=CC=C1)N=C(C2=CC=CC=C2)C3=C(NC4=C3C=CC(=C4)C(=O)N(C)C)O + CC1(C)CCC(c2ccc(Cl)cc2)=C(CN2CCN(c3ccc(C(=O)NS(=O)(=O)c4ccc(N[C@H](CCN5CCOCC5)CSc5ccccc5)c(S(=O)(=O)C(F)(F)F)c4)cc3)CC2)C1 [Navitoclax] (partner 0.5 µM)
Procedure, shortened: as §1

| Cell Line | relative viability ([1]; first compound 0.08 µM) | relative viability ([1]; first compound 0.253 µM) | relative viability ([1]; first compound 0.8 µM) | relative viability ([1]; first compound 2.53 µM) | relative viability ([1]; first compound 8 µM) | relative viability ([2]; first compound 0.08 µM) | relative viability ([2]; first compound 0.253 µM) | relative viability ([2]; first compound 0.8 µM) | relative viability ([2]; first compound 2.53 µM) | relative viability ([2]; first compound 8 µM) | relative viability ([3]; first compound 0.08 µM) | relative viability ([3]; first compound 0.253 µM) | relative viability ([3]; first compound 0.8 µM) | relative viability ([3]; first compound 2.53 µM) | relative viability ([3]; first compound 8 µM) | relative viability ([4]; first compound 0.08 µM) | relative viability ([4]; first compound 0.253 µM) | relative viability ([4]; first compound 0.8 µM) | relative viability ([4]; first compound 2.53 µM) | relative viability ([4]; first compound 8 µM) |
| --- | --- | --- | --- | --- | --- | --- | --- | --- | --- | --- | --- | --- | --- | --- | --- | --- | --- | --- | --- | --- |
| NCI-H2347 | 0.301 | 0.26 | 0.278 | 0.252 | 0.33 | 0.436 | 0.46 | 0.368 | 0.454 | 0.467 | 0.405 | 0.461 | 0.418 | 0.42 | 0.43 | 0.898 | 0.878 | 0.67 | 0.775 | 0.871 |
| NCI-H2228 | 0.625 | 0.417 | 0.376 | 0.457 | 0.421 | 0.403 | 0.308 | 0.312 | 0.254 | 0.357 | 0.312 | 0.36 | 0.339 | 0.33 | 0.353 | 0.868 | 0.909 | 0.731 | 0.803 | 0.663 |
| NCI-H1299 | – | – | – | – | – | – | – | – | – | – | – | – | – | – | – | 1.14 | 1.05 | 1.09 | 1.03 | 1.01 |
| NCI-H1563 | – | – | – | – | – | 0.641 | 0.7 | 0.654 | 0.648 | 0.658 | 0.829 | 0.665 | 0.782 | 0.741 | 0.698 | – | – | – | – | – |
| NCI-H647 | 0.463 | 0.492 | 0.434 | 0.388 | 0.299 | 0.521 | 0.539 | 0.463 | 0.555 | 0.318 | 0.179 | 0.181 | 0.147 | 0.172 | 0.181 | 1.15 | 0.962 | 1.34 | 0.916 | 0.976 |
| NCI-H838 | 0.528 | 0.51 | 0.494 | 0.473 | 0.431 | 0.57 | 0.584 | 0.585 | 0.537 | 0.503 | 0.247 | 0.243 | 0.23 | 0.213 | 0.253 | 1.22 | 1.16 | 1.2 | 1.07 | 0.985 |
| NCI-H727 | – | 0.368 | 0.428 | 0.391 | 0.426 | 0.595 | 0.474 | 0.53 | 0.578 | 0.573 | – | – | – | – | – | 0.574 | 0.428 | 0.371 | 0.471 | 0.498 |
| NCI-H661 | 0.565 | 0.551 | 0.54 | 0.591 | 0.592 | 0.274 | 0.284 | 0.244 | 0.293 | 0.262 | 0.867 | 0.901 | 0.935 | 0.928 | 0.907 | – | – | – | – | – |
| 201T | 0.71 | 0.693 | 0.73 | 0.716 | 0.657 | 0.437 | 0.449 | 0.416 | 0.428 | 0.41 | 0.355 | 0.382 | 0.347 | 0.331 | 0.315 | 1.2 | 1.23 | 1.14 | 1.17 | 1.18 |
| PC-3 [JPC-3] | 0.709 | 0.681 | 0.653 | 0.678 | 0.702 | 0.446 | 0.485 | 0.428 | 0.46 | 0.496 | 1.08 | 1.04 | 0.665 | 1.08 | 1.28 | 0.787 | 0.703 | 0.643 | 0.84 | 0.843 |
| CAL-12T | 0.389 | 0.399 | 0.338 | 0.459 | 0.354 | 0.55 | 0.563 | 0.529 | 0.555 | 0.543 | 1.17 | 1.22 | 1.14 | 1.34 | 1.25 | 1.11 | 1.32 | 1.21 | 0.963 | 1.25 |
| NCI-H1437 | 0.574 | 0.53 | 0.475 | 0.572 | 0.656 | 0.269 | 0.298 | 0.335 | 0.349 | 0.36 | 0.297 | 0.294 | 0.287 | 0.283 | 0.285 | 1.2 | 1.08 | 1.09 | 1.06 | 1.12 |
| RERF-LC-KJ | 0.911 | 0.837 | 0.844 | 0.907 | 0.846 | 0.434 | 0.424 | 0.412 | 0.409 | 0.398 | 0.473 | 0.453 | 0.491 | 0.443 | 0.499 | 1.06 | 0.645 | 0.833 | 1.03 | 0.866 |
| LK-2 | 0.776 | 0.861 | 0.674 | 0.835 | 0.655 | 0.511 | 0.475 | 0.306 | 0.374 | 0.244 | 0.286 | 0.253 | 0.236 | 0.269 | 0.211 | 1.06 | 0.784 | 0.897 | 0.789 | 0.761 |
| Calu-6 | – | – | – | – | – | – | – | – | – | – | – | – | – | – | – | 0.815 | 0.831 | 0.963 | 0.888 | 0.928 |
| NCI-H1944 | 0.44 | 0.4 | 0.337 | 0.464 | 0.373 | 0.2 | 0.217 | 0.183 | 0.177 | 0.187 | 0.607 | 0.571 | 0.615 | 0.512 | 0.537 | 1.21 | 0.937 | 0.951 | 0.947 | 0.908 |
| NCI-H650 | 0.974 | 1.17 | 0.975 | 0.812 | 0.964 | 0.49 | 0.495 | 0.459 | 0.43 | 0.433 | 0.933 | 1.14 | 1.15 | 0.979 | 0.831 | – | – | – | – | – |
| IA-LM | – | – | – | – | – | – | – | – | – | – | – | – | – | – | – | – | 0.848 | 0.766 | 0.915 | 1.02 |
| NCI-H1703 | – | – | – | – | – | – | – | – | – | – | – | – | – | – | – | 1.07 | 1.17 | 1.1 | 0.717 | 0.222 |
| ABC-1 | – | – | – | – | – | 0.205 | 0.277 | 0.231 | 0.207 | 0.243 | – | – | – | – | – | – | – | – | – | – |
| NCI-H358 | 0.146 | 0.171 | 0.125 | 0.092 | 0.129 | 0.349 | 0.343 | 0.201 | 0.303 | 0.313 | 0.176 | 0.173 | 0.165 | 0.164 | 0.175 | – | – | – | – | – |
